{"source": "patent US20250312499A1", "about": "“KISSPEPTIN RECEPTOR (KISS1R) TARGETED THERAPEUTICS AND USES THEREOF” (priority 2024, published 2025)", "note": "Numbered stars: 1 amine (or outer) side, 2 acyl side, 3 side chain; on linkers, the order of the positions; unused ones are H or OH. Square brackets hold non-standard residues; d marks the D form. Peptide text beside a SMILES is read from it. * marks the point of attachment. DOTA = O=C(O)CN1CCN(CC(=O)O)CCN(CC(=O)*)CCN(CC(=O)O)CC1; Gly(N-(3-F-4-Me-benzyl)) = Cc1ccc(CNCC(=O)*)cc1F; Api(1-amidino) = N=C(N)N1CCC(N)(C(=O)O)CC1; d(γGlu) = O=C(O)[C@@H](CCC(=O)[*:2])N[*:1]; Phe(4-CN) = N#Cc1ccc(C[C@H](N)C(=O)O)cc1; HO(CH2CH2O)2CH2CH2CO = O=C(CCOCCOCCO)*; 2Nal = N[C@@H](Cc1ccc2ccccc2c1)C(=O)O; d2Nal = N[C@H](Cc1ccc2ccccc2c1)C(=O)O; Trx = NC[C@H]1CC[C@H](C(=O)O)CC1; X1 = O=C(CN1CCC(N[*:1])CC1)[*:2]; dCya = N[C@H](CS(=O)(=O)O)C(=O)O; 4Pal = N[C@@H](Cc1ccncc1)C(=O)O; d4Pal = N[C@H](Cc1ccncc1)C(=O)O; Cha = N[C@@H](CC1CCCCC1)C(=O)O; 4Amb = NCc1ccc(C(=O)O)cc1; Api = NC1(C(=O)O)CCNCC1; Ahx = NCCCCCC(=O)O; azaGly = NNC(=O)O"}
{"target": "human kisspeptin receptor (Homo sapiens (Human), UniProt Q969F8)", "sequence (Q969F8 whole entry)": "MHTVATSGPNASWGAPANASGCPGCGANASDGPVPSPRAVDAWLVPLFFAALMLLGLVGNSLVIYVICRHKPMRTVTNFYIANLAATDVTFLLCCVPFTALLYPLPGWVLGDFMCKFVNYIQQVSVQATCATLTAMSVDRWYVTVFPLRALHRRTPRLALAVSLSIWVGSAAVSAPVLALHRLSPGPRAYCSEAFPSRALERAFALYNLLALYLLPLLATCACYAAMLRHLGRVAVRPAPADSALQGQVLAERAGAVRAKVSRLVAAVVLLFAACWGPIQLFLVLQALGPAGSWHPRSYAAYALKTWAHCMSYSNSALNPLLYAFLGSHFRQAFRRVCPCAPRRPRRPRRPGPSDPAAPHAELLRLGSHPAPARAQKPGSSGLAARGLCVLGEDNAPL", "experiment": "Human KISS1R binding assay (membrane competition binding)", "conditions": "90 min at room temperature; competition with 0.2 nM [125I]-metastin (45-54); Flp-In T-Rex 293 kisspeptin membranes; metal complexes nonradioactive Ga, In, Lu; read-out: hKiSSR Binding Ki (90 min)", "method_in_brief": "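Radioligand competition: 0.2 nM [125I]-metastin (45-54) displaced by test ligand (usually 0–10,000 nM) over 90 min at room temperature, pH 7.4 buffer with 0.1% BSA. Receptor source is crude membrane (5–10 μg) from tetracycline-induced Flp-In T-Rex 293 cells. Bound label filtered and counted; Ki from non-linear regression.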", "units": {"Ki": "nM"}}
{"smiles": "Cc1ccc(CNCC(=O)N2CCC(NC(=O)[C@H](CC(C)C)NC(=O)NNC(=O)[C@H](Cc3ccccc3)NC(=O)[C@@H](NC(=O)[C@H](CCC(=O)O)NC(=O)CN3CCC(NC(=O)CN4CCN(CC(=O)O)CCN(CC(=O)O)CCN(CC(=O)O)CC4)CC3)[C@@H](C)O)(C(=O)N[C@@H](Cc3c[nH]c4ccccc34)C(N)=O)CC2)cc1F", "note": "[Compound 234] ({DOTA}-[X1]ETF[azaGly]L[Api](Gly(N-(3-F-4-Me-benzyl)))W-NH2)", "Ki": "< 10"}
{"smiles": "Cc1ccc(CNCC(=O)N2CCC(NC(=O)[C@H](CC(C)C)NC(=O)NNC(=O)[C@H](Cc3ccccc3)NC(=O)CCCCCNC(=O)[C@@H](CS(=O)(=O)O)NC(=O)[C@@H](CS(=O)(=O)O)NC(=O)CN3CCN(CC(=O)O)CCN(CC(=O)O)CCN(CC(=O)O)CC3)(C(=O)N[C@@H](Cc3c[nH]c4ccccc34)C(N)=O)CC2)cc1F", "note": "[Compound 130] ({DOTA}-[dCya][dCya][Ahx]F[azaGly]L[Api](Gly(N-(3-F-4-Me-benzyl)))W-NH2)", "Ki": "< 10"}
{"smiles": "Cc1ccc(CNCC(=O)N2CCC(NC(=O)[C@H](CC(C)C)NC(=O)NNC(=O)[C@H](Cc3ccccc3)NC(=O)[C@@H](NC(=O)[C@H](CC(N)=O)NC(=O)[C@H](CCCCNC(=O)CN3CCN(CC(=O)O)CCN(CC(=O)O)CCN(CC(=O)O)CC3)NC(=O)CCOCCOCCO)[C@@H](C)O)(C(=O)N[C@@H](Cc3ccncc3)C(N)=O)CC2)cc1F", "note": "[Compound 253] ({HO(CH2CH2O)2CH2CH2CO}-K(DOTA)NTF[azaGly]L[Api](Gly(N-(3-F-4-Me-benzyl)))[4Pal]-NH2)", "Ki": "< 10"}
{"smiles": "CC(C)C[C@H](NC(=O)NNC(=O)[C@H](Cc1ccccc1)NC(=O)[C@@H](NC(=O)[C@H](CC(N)=O)NC(=O)[C@H](Cc1ccc2ccccc2c1)NC(=O)[C@@H](Cc1ccc(O)cc1)NC(=O)CCCCCNC(=O)CN1CCN(CC(=O)O)CCN(CC(=O)O)CCN(CC(=O)O)CC1)[C@@H](C)O)C(=O)NC1(C(=O)N[C@@H](Cc2ccncc2)C(N)=O)CCN(C(=N)N)CC1", "note": "[Compound 275] ({DOTA-Ahx}-[dY][2Nal]NTF[azaGly]L[Api(1-amidino)][4Pal]-NH2)", "Ki": "< 10"}
{"smiles": "Cc1ccc(CNCC(=O)N2CCC(NC(=O)[C@H](CC(C)C)NC(=O)NNC(=O)[C@H](CC3CCCCC3)NC(=O)[C@@H](NC(=O)[C@H](CC(N)=O)NC(=O)[C@@H](Cc3ccc4ccccc4c3)NC(=O)[C@@H](Cc3ccc(O)cc3)NC(=O)CN3CCN(CC(=O)O)CCN(CC(=O)O)CCN(CC(=O)O)CC3)[C@@H](C)O)(C(=O)N[C@@H](Cc3c[nH]c4ccccc34)C(N)=O)CC2)cc1F", "note": "[Compound 318] ({DOTA}-[dY][d2Nal]NT[Cha][azaGly]L[Api](Gly(N-(3-F-4-Me-benzyl)))W-NH2)", "Ki": "< 10"}
{"smiles": "Cc1ccc(CNCC(=O)N2CCC(NC(=O)[C@H](CC(C)C)NC(=O)NNC(=O)[C@H](Cc3ccccc3)NC(=O)[C@H]3CC[C@H](CNC(=O)CC[C@@H](NC(=O)CN4CCN(CC(=O)O)CCN(CC(=O)O)CCN(CC(=O)O)CC4)C(=O)O)CC3)(C(=O)N[C@@H](Cc3c[nH]c4ccccc34)C(N)=O)CC2)cc1F", "note": "[Compound 165] ({DOTA-d(γGlu)-Trx}-F[azaGly]L[Api](Gly(N-(3-F-4-Me-benzyl)))W-NH2)", "Ki": "< 10"}
{"smiles": "Cc1ccc(CNCC(=O)N2CCC(NC(=O)[C@H](CC(C)C)NC(=O)NNC(=O)[C@H](Cc3ccccc3)NC(=O)[C@@H](NC(=O)[C@H](CC(N)=O)NC(=O)[C@@H](Cc3ccncc3)NC(=O)[C@@H](Cc3ccc(O)cc3)NC(=O)CN3CCN(CC(=O)O)CCN(CC(=O)O)CCN(CC(=O)O)CC3)[C@@H](C)O)(C(=O)N[C@@H](Cc3c[nH]c4ccccc34)C(N)=O)CC2)cc1F", "note": "[Compound 23] ({DOTA}-[dY][d4Pal]NTF[azaGly]L[Api](Gly(N-(3-F-4-Me-benzyl)))W-NH2)", "Ki": "< 10"}
{"smiles": "Cc1ccc(CNCC(=O)N2CCC(NC(=O)[C@H](CC(C)C)NC(=O)NNC(=O)[C@H](Cc3ccccc3)NC(=O)[C@@H](NC(=O)[C@H](CC(N)=O)NC(=O)[C@H](CCC(=O)O)NC(=O)c3ccc(CNC(=O)CN4CCN(CC(=O)O)CCN(CC(=O)O)CCN(CC(=O)O)CC4)cc3)[C@@H](C)O)(C(=O)N[C@@H](Cc3ccc(C#N)cc3)C(N)=O)CC2)cc1F", "note": "[Compound 241] ({DOTA-4Amb}-ENTF[azaGly]L[Api](Gly(N-(3-F-4-Me-benzyl)))[Phe(4-CN)]-NH2)", "Ki": "< 10"}
